Results on four compounds are retold here after PubChem BioAssay (NCI).

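Cells were grown in 96-well plates and exposed to each compound for 48 hours at five concentrations; endpoints were interpolated linearly between bracketing concentrations, or set to the highest concentration if not reached. The concentration for full growth arrest is given as TGI.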

In the first test the test system is HCC-2998 colon. The test can be described thus: NCI tumour cell line growth inhibition, 48 h.
`CC1OC(c2ccc3c(c2O)C(=O)C2=C(C3=O)C3(O)C(=O)CC(C)(O)CC3(O)C=C2)CC(O)C1O` (centres undefined): the TGI stood at 31.7 µM.

The compound `CCN(CC)CCO/N=C1\CC[C@H]2[C@@H]3CCc4cc(OC)ccc4[C@H]3CC[C@]12C` returned a TGI of 3.33 µM.

In another test the test system is CCRF-CEM leukemia. Description: NCI tumour cell line growth inhibition, 48 h.
`CC(=O)n1nc(-c2ccccc2)n(/N=C/c2ccc([N+](=O)[O-])o2)c1=O` returned a TGI of 6.55 µM.

For `Cc1ccc(NC(=O)/C(Cc2cc(=O)oc3cc(O)ccc23)=N\NC(=O)C[N+](C)(C)C)cc1C`, the TGI was greater than 100 µM.

Regarding `CC1OC(c2ccc3c(c2O)C(=O)C2=C(C3=O)C3(O)C(=O)CC(C)(O)CC3(O)C=C2)CC(O)C1O` (centres undefined), the TGI amounted to 5.27 µM.

`CCN(CC)CCO/N=C1\CC[C@H]2[C@@H]3CCc4cc(OC)ccc4[C@H]3CC[C@]12C` came in with a TGI of 4.86 µM.

Another test concerns MDA-N. The test can be described thus: NCI tumour cell line growth inhibition, 48 h.
Compound `CC(=O)n1nc(-c2ccccc2)n(/N=C/c2ccc([N+](=O)[O-])o2)c1=O` showed a TGI of 3.92 µM.

Consider `Cc1ccc(NC(=O)/C(Cc2cc(=O)oc3cc(O)ccc23)=N\NC(=O)C[N+](C)(C)C)cc1C`, for which the TGI was greater than 100 µM.

In turn, `CC1OC(c2ccc3c(c2O)C(=O)C2=C(C3=O)C3(O)C(=O)CC(C)(O)CC3(O)C=C2)CC(O)C1O` (centres undefined) registered a TGI of 11.7 µM.

As to `CCN(CC)CCO/N=C1\CC[C@H]2[C@@H]3CCc4cc(OC)ccc4[C@H]3CC[C@]12C`, the TGI came out at 3.66 µM.

For the next test, the system named is UO-31 renal. The test can be described thus: NCI tumour cell line growth inhibition, 48 h.
Consider `CC(=O)n1nc(-c2ccccc2)n(/N=C/c2ccc([N+](=O)[O-])o2)c1=O`, for which the TGI was found to be 4.17 µM.

Turning to `Cc1ccc(NC(=O)/C(Cc2cc(=O)oc3cc(O)ccc23)=N\NC(=O)C[N+](C)(C)C)cc1C`, the TGI was greater than 100 µM.

Regarding `CC1OC(c2ccc3c(c2O)C(=O)C2=C(C3=O)C3(O)C(=O)CC(C)(O)CC3(O)C=C2)CC(O)C1O` (centres undefined), the TGI was 36.9 µM.

`CCN(CC)CCO/N=C1\CC[C@H]2[C@@H]3CCc4cc(OC)ccc4[C@H]3CC[C@]12C` displayed a TGI of 7.77 µM.

The test system of the next test is EKVX NSCLC. Description: NCI tumour cell line growth inhibition, 48 h.
For the compound `CC(=O)n1nc(-c2ccccc2)n(/N=C/c2ccc([N+](=O)[O-])o2)c1=O`, the TGI was greater than 49.1 µM.

Consider `Cc1ccc(NC(=O)/C(Cc2cc(=O)oc3cc(O)ccc23)=N\NC(=O)C[N+](C)(C)C)cc1C`, for which the TGI is greater than 100 µM.

As to `CC1OC(c2ccc3c(c2O)C(=O)C2=C(C3=O)C3(O)C(=O)CC(C)(O)CC3(O)C=C2)CC(O)C1O` (centres undefined), the TGI was found to be 33.9 µM.

`CCN(CC)CCO/N=C1\CC[C@H]2[C@@H]3CCc4cc(OC)ccc4[C@H]3CC[C@]12C` returned a TGI of 9.76 µM.

For a further test, the system named is KM12 colon. The test can be described thus: NCI tumour cell line growth inhibition, 48 h.
Consider `CC(=O)n1nc(-c2ccccc2)n(/N=C/c2ccc([N+](=O)[O-])o2)c1=O`, for which the TGI stood at 36.4 µM.

In turn, `Cc1ccc(NC(=O)/C(Cc2cc(=O)oc3cc(O)ccc23)=N\NC(=O)C[N+](C)(C)C)cc1C` returned a TGI greater than 100 µM.

On to `CC1OC(c2ccc3c(c2O)C(=O)C2=C(C3=O)C3(O)C(=O)CC(C)(O)CC3(O)C=C2)CC(O)C1O` (centres undefined), for which the TGI was greater than 60.6 µM.

As to `CCN(CC)CCO/N=C1\CC[C@H]2[C@@H]3CCc4cc(OC)ccc4[C@H]3CC[C@]12C`, the TGI stood at 5.86 µM.

Another test concerns UACC-257 melanoma. Description: NCI tumour cell line growth inhibition, 48 h.
Compound `CC(=O)n1nc(-c2ccccc2)n(/N=C/c2ccc([N+](=O)[O-])o2)c1=O` returned a TGI of 12.2 µM.

With `Cc1ccc(NC(=O)/C(Cc2cc(=O)oc3cc(O)ccc23)=N\NC(=O)C[N+](C)(C)C)cc1C`, the TGI is greater than 100 µM.

Consider `CC1OC(c2ccc3c(c2O)C(=O)C2=C(C3=O)C3(O)C(=O)CC(C)(O)CC3(O)C=C2)CC(O)C1O` (centres undefined), for which the TGI came to 29.3 µM.

Regarding `CCN(CC)CCO/N=C1\CC[C@H]2[C@@H]3CCc4cc(OC)ccc4[C@H]3CC[C@]12C`, the TGI worked out at 2.54 µM.

The test system of the next test is ACHN renal. Description: NCI tumour cell line growth inhibition, 48 h.
For the compound `CC(=O)n1nc(-c2ccccc2)n(/N=C/c2ccc([N+](=O)[O-])o2)c1=O`, the TGI is 19.1 µM.

In turn, `Cc1ccc(NC(=O)/C(Cc2cc(=O)oc3cc(O)ccc23)=N\NC(=O)C[N+](C)(C)C)cc1C` had a TGI greater than 100 µM.

In the case of `CC1OC(c2ccc3c(c2O)C(=O)C2=C(C3=O)C3(O)C(=O)CC(C)(O)CC3(O)C=C2)CC(O)C1O` (centres undefined), the TGI amounted to 26.5 µM.

In turn, `CCN(CC)CCO/N=C1\CC[C@H]2[C@@H]3CCc4cc(OC)ccc4[C@H]3CC[C@]12C` had a TGI of 13.2 µM.

The subject of another test is HCT-15 colon. Description: NCI tumour cell line growth inhibition, 48 h.
`CC(=O)n1nc(-c2ccccc2)n(/N=C/c2ccc([N+](=O)[O-])o2)c1=O` yielded a TGI of 15.4 µM.

The compound `Cc1ccc(NC(=O)/C(Cc2cc(=O)oc3cc(O)ccc23)=N\NC(=O)C[N+](C)(C)C)cc1C` returned a TGI greater than 100 µM.

In turn, `CC1OC(c2ccc3c(c2O)C(=O)C2=C(C3=O)C3(O)C(=O)CC(C)(O)CC3(O)C=C2)CC(O)C1O` (centres undefined) returned a TGI of 29.7 µM.

In turn, `CCN(CC)CCO/N=C1\CC[C@H]2[C@@H]3CCc4cc(OC)ccc4[C@H]3CC[C@]12C` returned a TGI of 1.94 µM.

The test system of a further test is NCI-H522 lung. Description: NCI tumour cell line growth inhibition, 48 h.
Regarding `CC(=O)n1nc(-c2ccccc2)n(/N=C/c2ccc([N+](=O)[O-])o2)c1=O`, the TGI is 7.15 µM.

In turn, `Cc1ccc(NC(=O)/C(Cc2cc(=O)oc3cc(O)ccc23)=N\NC(=O)C[N+](C)(C)C)cc1C` had a TGI greater than 100 µM.

Regarding `CC1OC(c2ccc3c(c2O)C(=O)C2=C(C3=O)C3(O)C(=O)CC(C)(O)CC3(O)C=C2)CC(O)C1O` (centres undefined), the TGI is 5.86 µM.

Consider `CCN(CC)CCO/N=C1\CC[C@H]2[C@@H]3CCc4cc(OC)ccc4[C@H]3CC[C@]12C`, for which the TGI turned out to be 7.02 µM.

A further test deals with T-47D breast. The test can be described thus: NCI tumour cell line growth inhibition, 48 h.
Compound `CC(=O)n1nc(-c2ccccc2)n(/N=C/c2ccc([N+](=O)[O-])o2)c1=O` showed a TGI of 44.5 µM.

Consider `Cc1ccc(NC(=O)/C(Cc2cc(=O)oc3cc(O)ccc23)=N\NC(=O)C[N+](C)(C)C)cc1C`, for which the TGI is greater than 100 µM.

As for `CC1OC(c2ccc3c(c2O)C(=O)C2=C(C3=O)C3(O)C(=O)CC(C)(O)CC3(O)C=C2)CC(O)C1O` (centres undefined), the TGI stood at 28.3 µM.

For the compound `CCN(CC)CCO/N=C1\CC[C@H]2[C@@H]3CCc4cc(OC)ccc4[C@H]3CC[C@]12C`, the TGI came out at 7.13 µM.

Another test relates to BT-549 breast. The test can be described thus: NCI tumour cell line growth inhibition, 48 h.
The compound `CC(=O)n1nc(-c2ccccc2)n(/N=C/c2ccc([N+](=O)[O-])o2)c1=O` displayed a TGI of 17.6 µM.

As for `Cc1ccc(NC(=O)/C(Cc2cc(=O)oc3cc(O)ccc23)=N\NC(=O)C[N+](C)(C)C)cc1C`, the TGI is greater than 100 µM.

Regarding `CC1OC(c2ccc3c(c2O)C(=O)C2=C(C3=O)C3(O)C(=O)CC(C)(O)CC3(O)C=C2)CC(O)C1O` (centres undefined), the TGI is 32.8 µM.

Regarding `CCN(CC)CCO/N=C1\CC[C@H]2[C@@H]3CCc4cc(OC)ccc4[C@H]3CC[C@]12C`, the TGI came out at 19 µM.

In the next test the test system is HCT-116 colon. Description: NCI tumour cell line growth inhibition, 48 h.
Compound `CC(=O)n1nc(-c2ccccc2)n(/N=C/c2ccc([N+](=O)[O-])o2)c1=O` displayed a TGI of 3.71 µM.

For the compound `Cc1ccc(NC(=O)/C(Cc2cc(=O)oc3cc(O)ccc23)=N\NC(=O)C[N+](C)(C)C)cc1C`, the TGI is greater than 100 µM.

In turn, `CC1OC(c2ccc3c(c2O)C(=O)C2=C(C3=O)C3(O)C(=O)CC(C)(O)CC3(O)C=C2)CC(O)C1O` (centres undefined) had a TGI of 17.5 µM.

Consider `CCN(CC)CCO/N=C1\CC[C@H]2[C@@H]3CCc4cc(OC)ccc4[C@H]3CC[C@]12C`, for which the TGI amounted to 2.92 µM.

The test system of a further test is NCI-H23 lung. The test can be described thus: NCI tumour cell line growth inhibition, 48 h.
Consider `CC(=O)n1nc(-c2ccccc2)n(/N=C/c2ccc([N+](=O)[O-])o2)c1=O`, for which the TGI amounted to 14.3 µM.

For the compound `Cc1ccc(NC(=O)/C(Cc2cc(=O)oc3cc(O)ccc23)=N\NC(=O)C[N+](C)(C)C)cc1C`, the TGI was greater than 100 µM.

As to `CC1OC(c2ccc3c(c2O)C(=O)C2=C(C3=O)C3(O)C(=O)CC(C)(O)CC3(O)C=C2)CC(O)C1O` (centres undefined), the TGI was 45.6 µM.

The compound `CCN(CC)CCO/N=C1\CC[C@H]2[C@@H]3CCc4cc(OC)ccc4[C@H]3CC[C@]12C` registered a TGI of 18.6 µM.

A further test has as its system SK-MEL-28 melanoma. Description: NCI tumour cell line growth inhibition, 48 h.
In turn, `CC(=O)n1nc(-c2ccccc2)n(/N=C/c2ccc([N+](=O)[O-])o2)c1=O` displayed a TGI of 22.3 µM.

Turning to `Cc1ccc(NC(=O)/C(Cc2cc(=O)oc3cc(O)ccc23)=N\NC(=O)C[N+](C)(C)C)cc1C`, the TGI is greater than 100 µM.

Compound `CC1OC(c2ccc3c(c2O)C(=O)C2=C(C3=O)C3(O)C(=O)CC(C)(O)CC3(O)C=C2)CC(O)C1O` (centres undefined) displayed a TGI of 29.4 µM.

As to `CCN(CC)CCO/N=C1\CC[C@H]2[C@@H]3CCc4cc(OC)ccc4[C@H]3CC[C@]12C`, the TGI came to 1.28 µM.

A further test relates to SK-OV-3 ovarian. Description: NCI tumour cell line growth inhibition, 48 h.
`CC(=O)n1nc(-c2ccccc2)n(/N=C/c2ccc([N+](=O)[O-])o2)c1=O` showed a TGI of 40.2 µM.
